Molecules are shown by their SMILES.

In experiment [1] the target is CYP 2C19 (Homo sapiens, UniProt P33261). Kind of experiment: CYP inhibition test, human liver microsomes, CYP2C19. The procedure: (§1) • 1. Test purpose: to evaluate the inhibitory ability of some of the example compounds of the present invention against CYP1A2, 2B6, 2C8, 2C9, 2C19, 2D6 and 3A4 via human liver microsomes. • 2. […] Test method:
(§2) • 1. K/Mg buffer: the components were 0.1 mol/L potassium phosphate and 5 mmol/L magnesium chloride with pH 7.4±0.1, preheated. • 2. Solution of the test compound: the test compound was dissolved in dimethyl sulfoxide to prepare a stock solution of 10 mmol/L. 8 μL of 10 mmol/L stock solution was transferred to a 96-well plate containing 12 μL of acetonitrile as the highest concentration point, at 3-fold dilution, for 8 concentrations. • 3. NADPH solution: 66.7 mg of NADPH was dissolved in 10 mL of 0.1 mol/L K/Mg buffer to obtain 8 mmol/L NADPH solution with pH 7.4. • 4. Human liver microsomal stock solution: human liver microsomes were dissolved in 0.1 mol/L K/Mg buffer to obtain 20 mg/mL stock solution. • 5. Human liver microsomal working solution: 10 μL of 20 mg/mL human liver microsomal stock solution was taken and added into 990 μL of 0.1 mol/L K/Mg buffer to prepare 0.2 mg/mL human liver microsomal solution. • 6. […]

For experiment [2], the target named is T1, CYP 2B6 (Homo sapiens, UniProt P20813).
T1 sequence (P20813 1-491): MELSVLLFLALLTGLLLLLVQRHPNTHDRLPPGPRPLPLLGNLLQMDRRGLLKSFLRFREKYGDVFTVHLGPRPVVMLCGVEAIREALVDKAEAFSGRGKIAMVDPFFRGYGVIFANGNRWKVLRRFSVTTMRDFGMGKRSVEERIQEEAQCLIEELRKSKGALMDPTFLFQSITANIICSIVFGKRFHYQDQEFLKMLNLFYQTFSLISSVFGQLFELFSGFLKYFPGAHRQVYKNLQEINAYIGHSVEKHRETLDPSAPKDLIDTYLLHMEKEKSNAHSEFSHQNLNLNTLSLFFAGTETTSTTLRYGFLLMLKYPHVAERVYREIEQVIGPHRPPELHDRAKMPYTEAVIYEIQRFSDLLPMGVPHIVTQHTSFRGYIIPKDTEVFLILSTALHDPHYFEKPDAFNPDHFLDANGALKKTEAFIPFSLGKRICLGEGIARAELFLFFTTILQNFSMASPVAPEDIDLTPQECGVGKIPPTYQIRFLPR
Kind of experiment: CYP inhibition test, human liver microsomes, CYP2B6. The procedure:
as §1
• 1. K/Mg buffer: the components were 0.1 mol/L potassium phosphate and 5 mmol/L magnesium chloride with pH 7.4±0.1, preheated. • 2. Solution of the test compound: the test compound was dissolved in dimethyl sulfoxide to prepare a stock solution of 10 mmol/L. 8 μL of 10 mmol/L stock solution was transferred to a 96-well plate containing 12 μL of acetonitrile as the highest concentration point, at 3-fold dilution, for 8 concentrations. • 3. […] Human liver microsomal stock solution: human liver microsomes were dissolved in 0.1 mol/L K/Mg buffer to obtain 20 mg/mL stock solution. • 5. Human liver microsomal working solution: 10 μL of 20 mg/mL human liver microsomal stock solution was taken and added into 990 μL of 0.1 mol/L K/Mg buffer to prepare 0.2 mg/mL human liver microsomal solution. • 6.
600 μL of 0.2 mg/mL human liver microsomal solution and 3 μL of stepwise diluted test compound solution were added to the 96-well plate. 30 μL of the above solution was added on the 96-well plate followed by the addition of 15 μL of the corresponding substrate solution. […]

The target of experiment [3] is T2, CYP 2C8 (Homo sapiens, UniProt P10632).
T2 sequence (P10632 1-490): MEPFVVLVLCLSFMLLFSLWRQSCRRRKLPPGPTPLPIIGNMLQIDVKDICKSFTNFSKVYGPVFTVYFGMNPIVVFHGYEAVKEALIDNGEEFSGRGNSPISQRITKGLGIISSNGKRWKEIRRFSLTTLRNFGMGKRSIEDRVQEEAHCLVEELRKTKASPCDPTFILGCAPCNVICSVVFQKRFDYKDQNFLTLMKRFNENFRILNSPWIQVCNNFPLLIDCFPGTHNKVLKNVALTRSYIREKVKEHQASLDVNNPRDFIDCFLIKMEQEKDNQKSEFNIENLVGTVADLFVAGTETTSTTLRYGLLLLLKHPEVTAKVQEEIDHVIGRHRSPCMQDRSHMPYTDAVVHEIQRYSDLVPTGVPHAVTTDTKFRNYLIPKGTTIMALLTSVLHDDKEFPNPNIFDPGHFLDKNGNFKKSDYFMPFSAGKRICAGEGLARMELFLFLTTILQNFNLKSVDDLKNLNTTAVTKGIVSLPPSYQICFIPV
Kind of experiment: CYP inhibition test, human liver microsomes, CYP2C8. The procedure:
as §1, §2
Background: Liver microsomes are vesicles of endoplasmic reticulum, rich in cytochrome P450 enzymes.

Chain of CYP 2C19 (P33261 whole entry): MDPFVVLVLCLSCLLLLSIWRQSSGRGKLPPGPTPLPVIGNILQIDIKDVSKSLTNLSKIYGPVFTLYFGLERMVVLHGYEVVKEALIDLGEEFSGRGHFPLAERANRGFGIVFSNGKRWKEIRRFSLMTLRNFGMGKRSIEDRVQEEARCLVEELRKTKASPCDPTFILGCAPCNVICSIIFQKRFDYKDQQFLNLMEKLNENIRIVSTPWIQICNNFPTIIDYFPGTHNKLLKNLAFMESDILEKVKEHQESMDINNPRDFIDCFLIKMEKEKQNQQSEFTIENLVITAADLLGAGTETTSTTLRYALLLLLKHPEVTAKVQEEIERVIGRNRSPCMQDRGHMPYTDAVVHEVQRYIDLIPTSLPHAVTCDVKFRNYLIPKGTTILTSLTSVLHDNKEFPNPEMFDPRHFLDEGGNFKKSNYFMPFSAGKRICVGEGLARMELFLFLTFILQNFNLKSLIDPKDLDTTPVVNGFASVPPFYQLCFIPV

What is called IC50 is the concentration needed to halve the response being measured. As for `C=CC(=O)N1CCN(c2nc(=O)n(-c3c(C)ccnc3C(C)C)c3nc(-c4c(O)cccc4F)c(F)cc23)[C@@H](C)C1` [AMG510], the IC50 in experiment [1], in experiment [2] and in experiment [3] was > 10 µM each time.
In the case of `C=C(F)C(=O)N1CCN(c2nc(OC[C@@H]3CCCN3C)nc3c2CCN(c2cccc4cccc(Cl)c24)C3)C[C@@H]1CC#N` [MRTX849], the IC50 in experiment [1] is > 10 µM; in experiment [2], 3.93 µM; in experiment [3], > 10 µM.

These data come from patent US20250034161A1, “SPIROCYCLIC COMPOUND AS KRAS-G12C INHIBITOR” (Shanghai Euregen Biopharma Co., Ltd., priority 2020, published 2025).
